# Assay results as given in US20250085285A1, “Methods for Generating Biologically Specific Chromatin Condensates and Uses Thereof” (The Regents of the University of California, priority 2022, published 2025).
# Target: T1, HP1α-chromatin condensates (Homo sapiens, UniProt P45973)
# T1 construct: 6x-His (cleaved yes); made in house; host or cells: E. coli Rosetta BL21 (DE3)
# Experiment: HP1α-chromatin condensate in vitro droplet assay / screening (fluorescence imaging)
# Assay type: biochemical
# Conditions: for Effect of bioactive small molecules on HP1α-chromatin condensates: FIG. 7, Bioactive compound library (Selleck Chemicals), final concentration of 10 μM, H3K9me3 nucleosome arrays
# Procedure: HP1α was diluted to the desired 2× concentration. HP1αKCK was added to HP1α at a ratio of 1:500 HP1α: HP1αKCK for evident fluorescent signal. HP1α-chromatin droplets were formed at 40 nM nucleosome array concentration in 20 mM HEPES pH 7.5, 0.1 mM EDTA and 2× HP1α-HP1αKCK in 20 mM HEPES pH 7.2, 150 mM KCl 1 mM DTT. 10 μL of 80 nM nucleosome arrays (2×) was mixed with 10 μl 2× HP1α-HP1αKCK and incubated at room temperature for 20 minutes before transferring to a glass bottom 384 well plate for imaging.
# 384 well glass bottom plates (Greiner Sensoplate 781892) were prepared for sample examination as follows: The wells were rinsed three times with 100 μl water, incubated with 100 μl of 2% Hellmanex for 30 mins-1 hour, rinsed with water three times again, incubated with 100 μl of 0.5M NaOH for 30 mins, rinsed with water three times, and then 70 μl of 20 mg/ml mPEG-silane dissolved in 95% EtOH was added to coat the wells. The plate was covered with foil and left overnight at 4° C.
# After the overnight, the wells were rinsed with 95% EtOH five times, followed by incubation with 100 mg/ml BSA for 2 hours. Then, the wells were rinsed three times with water and three times with 1× phasing buffer afterwards (20 mM HEPES pH 7.2, 75 mM KCl, 0.05 mM EDTA, 0.5 mM DTT). After, the condensates are added to each well.
# To conduct droplet assays at scale, arrays assembled with 540 μg fluorescently labeled array DNA and 1.3 mg of fluorescently labeled HP1α were needed for one 384 well plate. 384 well plates were washed and coated in mPEG-silane in bulk using the Biotek EL406 washer dispenser. HP1α-array droplets were screened against a Bioactive compound library (Selleck Chemicals). These compounds were diluted in 1× phasing buffer (20 mM HEPES pH 7.2, 75 mM KCl, 0.05 mM EDTA, 0.5 mM DTT), and added to the wells for a final concentration of 10 μM in the reaction. The droplets and compounds were dispensed in the 384 wells using the Biomek-FX.
# After 3-4 hours of settling to the bottom of the plate, the condensates were imaged on the IN Cell Analyzer 6500HS equipped with a Nikon Plan Apo 40×/0.95NA objective and sCMOS camera. Five field of views per channel were taken per well. Image analysis was conducted using a custom pipeline written in Python using NumPy and SciPy SciKit libraries. Classical image segmentation and quantification techniques were implemented to identify droplets and characterize their geometry, fluorescent intensity, and consequently the effectiveness of the small molecules on the droplets.
# T1 sequence (P45973 whole entry): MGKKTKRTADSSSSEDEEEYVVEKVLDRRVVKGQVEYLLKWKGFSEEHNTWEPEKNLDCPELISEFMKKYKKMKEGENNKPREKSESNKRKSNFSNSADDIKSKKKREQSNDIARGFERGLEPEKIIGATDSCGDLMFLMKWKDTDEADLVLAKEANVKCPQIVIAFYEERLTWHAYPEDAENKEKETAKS
Effect of bioactive small molecules on HP1α-chromatin condensates,Compound,"Effect of biologically relevant interaction partners on HP1α-chromatin condensate formation (FIG. 6, interaction partner added to HP1α-chromatin condensates)"
dissolve condensates,CN(C)CCN1C(=O)c2cccc3cc(N)cc(c23)C1=O [Amonifide],–
enhance condensate formation,CS(=O)(=O)c1ccc(C(=O)Nc2ccc(Cl)c(-c3ccccn3)c2)c(Cl)c1 [Vismodegib],–
dissolve condensates,CC(c1cc2ccccc2s1)N(O)C(N)=O (stereo not drawn) [Zileuton],–

# Continued, compound first:
Compound,Effect of bioactive small molecules on HP1α-chromatin condensates,"Effect of biologically relevant interaction partners on HP1α-chromatin condensate formation (FIG. 6, interaction partner added to HP1α-chromatin condensates)"
C#Cc1cccc(Nc2ncnc3cc(OCCOC)c(OCCOC)cc23)c1 [Erlotinib],enhance condensate formation,–
CS(=O)(=O)CCNCc1ccc(-c2ccc3ncnc(Nc4ccc(OCc5cccc(F)c5)c(Cl)c4)c3c2)o1 [Lapatinib ditosylate],mild or no effect,–
"HP1β: heterochromatin protein, biologically relevant interaction partner of HP1α-chromatin condensates",–,"dissolves condensates, making them disappear or smaller"
